Test results from US20260317299A1, “PIKFYVE PROTEIN KINASE DEGRADATION AGENT AND USE THEREOF” (Shanghai Institute of Organic Chemistry, Chinese Academy of …, priority 2023, published 2026).

What follows are molecules tested against T1, PIKfyve (Homo sapiens, UniProt Q9Y2I7) (assay: Degradation of PIKfyve proteins in VCaP tumor cells (24 h, Western blot)). Conditions: 37° C., compared with DMSO control, WB, read-out: DC50 (concentration that achieves 50% degradation activity).
T1 construct: endogenous in cells; host or cells: VCaP
T1 sequence (Q9Y2I7 whole entry): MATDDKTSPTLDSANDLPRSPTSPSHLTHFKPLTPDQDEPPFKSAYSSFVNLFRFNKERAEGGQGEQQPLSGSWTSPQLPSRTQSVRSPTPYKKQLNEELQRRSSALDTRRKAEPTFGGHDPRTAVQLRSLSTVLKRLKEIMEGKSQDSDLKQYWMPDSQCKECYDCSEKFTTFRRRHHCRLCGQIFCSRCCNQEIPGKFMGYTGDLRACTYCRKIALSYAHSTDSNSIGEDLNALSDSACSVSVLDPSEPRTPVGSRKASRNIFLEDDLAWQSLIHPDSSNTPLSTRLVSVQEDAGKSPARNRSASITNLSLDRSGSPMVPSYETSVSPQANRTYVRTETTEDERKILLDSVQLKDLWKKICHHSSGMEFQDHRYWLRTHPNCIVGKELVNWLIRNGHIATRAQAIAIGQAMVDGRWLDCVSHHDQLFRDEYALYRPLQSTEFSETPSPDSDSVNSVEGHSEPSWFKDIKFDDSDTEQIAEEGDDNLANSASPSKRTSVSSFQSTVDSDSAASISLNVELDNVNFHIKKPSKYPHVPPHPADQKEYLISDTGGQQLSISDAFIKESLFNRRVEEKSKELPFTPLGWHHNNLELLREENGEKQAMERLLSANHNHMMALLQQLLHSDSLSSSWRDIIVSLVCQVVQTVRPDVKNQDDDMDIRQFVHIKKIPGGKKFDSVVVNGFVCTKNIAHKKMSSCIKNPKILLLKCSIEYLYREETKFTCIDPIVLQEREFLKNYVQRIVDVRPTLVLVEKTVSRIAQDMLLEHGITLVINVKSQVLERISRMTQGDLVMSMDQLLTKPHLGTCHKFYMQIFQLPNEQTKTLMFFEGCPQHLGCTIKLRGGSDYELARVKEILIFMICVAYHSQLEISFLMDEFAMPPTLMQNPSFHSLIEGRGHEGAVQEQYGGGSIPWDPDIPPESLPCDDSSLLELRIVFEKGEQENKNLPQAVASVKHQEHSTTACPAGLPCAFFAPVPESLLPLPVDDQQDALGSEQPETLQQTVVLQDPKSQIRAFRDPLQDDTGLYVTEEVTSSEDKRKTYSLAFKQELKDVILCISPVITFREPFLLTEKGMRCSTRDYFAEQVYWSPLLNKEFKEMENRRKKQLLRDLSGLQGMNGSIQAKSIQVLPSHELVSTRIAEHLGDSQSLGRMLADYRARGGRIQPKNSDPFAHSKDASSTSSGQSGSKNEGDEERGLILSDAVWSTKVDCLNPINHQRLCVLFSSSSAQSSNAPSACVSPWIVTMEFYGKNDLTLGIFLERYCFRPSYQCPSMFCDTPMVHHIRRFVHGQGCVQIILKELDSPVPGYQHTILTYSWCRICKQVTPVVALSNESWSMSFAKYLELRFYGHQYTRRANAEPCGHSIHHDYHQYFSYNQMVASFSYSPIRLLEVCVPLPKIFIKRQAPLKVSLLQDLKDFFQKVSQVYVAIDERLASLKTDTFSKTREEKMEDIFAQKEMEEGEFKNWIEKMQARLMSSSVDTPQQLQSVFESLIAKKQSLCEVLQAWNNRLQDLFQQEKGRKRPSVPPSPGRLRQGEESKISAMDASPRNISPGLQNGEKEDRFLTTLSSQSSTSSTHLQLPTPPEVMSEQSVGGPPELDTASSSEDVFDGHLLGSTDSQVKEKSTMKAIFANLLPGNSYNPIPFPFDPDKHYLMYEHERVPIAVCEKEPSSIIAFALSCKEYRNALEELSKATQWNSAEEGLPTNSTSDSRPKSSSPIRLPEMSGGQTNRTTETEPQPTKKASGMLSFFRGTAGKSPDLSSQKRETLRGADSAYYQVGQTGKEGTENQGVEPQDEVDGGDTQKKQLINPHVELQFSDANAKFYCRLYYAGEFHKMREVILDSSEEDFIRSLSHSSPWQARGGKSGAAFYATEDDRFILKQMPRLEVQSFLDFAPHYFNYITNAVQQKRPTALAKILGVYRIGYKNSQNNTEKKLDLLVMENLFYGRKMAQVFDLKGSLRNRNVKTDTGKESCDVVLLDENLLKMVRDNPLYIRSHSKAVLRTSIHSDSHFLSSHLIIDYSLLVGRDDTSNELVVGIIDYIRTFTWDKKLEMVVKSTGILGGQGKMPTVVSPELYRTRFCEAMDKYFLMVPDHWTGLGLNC
Type: cell-based
Description: Method: 200 μL of cells at a density of 5×10^6 cells/ml were inoculated into a 6-well plate, and then different concentrations of drugs were added. The cells were treated at 37° C. for 24 h. The […] was collected and washed with PBS twice. Then, 100-200 μL of 1×SDS lysate was added, and the cell lysate was collected into a centrifuge tube. The cells were disrupted ultrasonically for 10-20 sec, and boiled for 10 min. Protein samples were subjected to SDS-PAGE electrophoresis at a voltage of 90 V, transferred to PVDF membranes at 110 V, blocked with 5% BSA for 4 h, incubated with primary antibodies (PIKfyve, GAPDH) at 4° C. overnight, and incubated with secondary antibodies (anti-Rabbit IgG or anti-Mouse IgG) at room temperature. The membranes were washed with TBST buffer, developed with an ECL developing solution, and then imaged to obtain protein band signals, with single-concentration WB results as shown in FIG. 1. Compared with the DMSO control group, the concentration that achieves 50% degradation activity is defined as DC50.

| SMILES | DC50 [nM] |
| --- | --- |
| Cc1cccc(/C=N/Nc2cc(N3CCOCC3)nc(OCCc3ccc(NC(=O)COc4cccc5c4C(=O)N(C4CCC(=O)NC4=O)C5=O)cc3)n2)c1 (centres unmarked) [Example 1, (E)-2-((2-(2,6-dioxopiperidin-3-yl)-1,3-dioxoisoindolin-4-yl)oxy)-N-(4-(2-((4-(2-(3-methylbenzylidene)hydrazino)-6-morpholinopyrimidin-2-yl)oxy)ethyl)phenyl)acetamide] | 100 to 10000 |
| Cc1cccc(/C=N/Nc2cc(N3CCOCC3)nc(OCCc3ccc(NC(=O)CCCCCOc4ccc5c(c4)C(=O)N(C4CCC(=O)NC4=O)C5=O)cc3)n2)c1 (centres unmarked) [Example 8, (E)-6-((2-(2,6-dioxopiperidin-3-yl)-1,3-dioxoisoindolin-5-yl)oxy)-N-(4-(2-((4-(2-(3-methylbenzylidene)hydrazino)-6-morpholinopyrimidin-2-yl)oxy)ethyl)phenyl)hexanamide] | 100 to 10000 |
| Cc1cccc(/C=N/Nc2cc(N3CCOCC3)nc(OCCc3ccc(NC(=O)CCCCCNc4cccc5c4C(=O)N(C4CCC(=O)NC4=O)C5=O)cc3)n2)c1 (centres unmarked) [Example 13, (E)-6-((2-(2,6-dioxopiperidin-3-yl)-1,3-dioxoisoindolin-4-yl)amino)-N-(4-(2-((4-(2-(3-methylbenzylidene)hydrazino)-6-morpholinopyrimidin-2-yl)oxy)ethyl)phenyl)hexanamide] | 100 to 10000 |
| Cc1cccc(/C=N/Nc2cc(N3CCOCC3)nc(OCCc3ccc(NC(=O)CCCNc4ccc5c(c4)C(=O)N(C4CCC(=O)NC4=O)C5=O)cc3)n2)c1 (centres unmarked) [Example 16, (E)-4-((2-(2,6-dioxopiperidin-3-yl)-1,3-dioxoisoindolin-5-yl)amino)-N-(4-(2-((4-(2-(3-methylbenzylidene)hydrazino)-6-morpholinopyrimidin-2-yl)oxy)ethyl)phenyl) butanamide] | 100 to 10000 |
| Cc1cccc(/C=N/Nc2cc(N3CCOCC3)nc(OCCc3ccc(NC(=O)CCCCCNc4ccc5c(c4)C(=O)N(C4CCC(=O)NC4=O)C5=O)cc3)n2)c1 (centres unmarked) [Example 17, (E)-6-((2-(2,6-dioxopiperidin-3-yl)-1,3-dioxoisoindolin-5-yl)amino)-N-(4-(2-((4-(2-(3-methylbenzylidene)hydrazino)-6-morpholinopyrimidin-2-yl)oxy)ethyl)phenyl) hexanamide] | 100 to 10000 |
| Cc1cccc(/C=N/Nc2cc(N3CCOCC3)nc(OCCc3ccc(NC(=O)CCCCCCCNc4ccc5c(c4)C(=O)N(C4CCC(=O)NC4=O)C5=O)cc3)n2)c1 (centres unmarked) [Example 18, (E)-8-((2-(2,6-dioxopiperidin-3-yl)-1,3-dioxoisoindolin-5-yl)amino)-N-(4-(2-((4-(2-(3-methylbenzylidene)hydrazino)-6-morpholinopyrimidin-2-yl)oxy)ethyl)phenyl) octanamide] | 100 to 10000 |
| Cc1cccc(/C=N/Nc2cc(N3CCOCC3)nc(OCCc3ccc(NC(=O)CCCCCCCCCNc4ccc5c(c4)C(=O)N(C4CCC(=O)NC4=O)C5=O)cc3)n2)c1 (centres unmarked) [Example 19, (E)-10-((2-(2,6-dioxopiperidin-3-yl)-1,3-dioxoisoindolin-5-yl)amino)-N-(4-(2-((4-(2-(3-methylbenzylidene)hydrazino)-6-morpholinopyrimidin-2-yl)oxy)ethyl)phenyl) decanamide] | 100 to 10000 |
| Cc1cccc(/C=N/Nc2cc(N3CCOCC3)nc(OCCc3ccc(NC(=O)CCCCCCC(=O)Nc4cccc5c4CN(C4CCC(=O)NC4=O)C5=O)cc3)n2)c1 (centres unmarked) [Example 21, (E)-N^1-(2-(2,6-dioxopiperidin-3-yl)-1-oxoisoindolin-4-yl)-N^8-(4-(2-((4-(2-(3-methylbenzylidene)hydrazino)-6-morpholinopyrimidin-2-yl)oxy)ethyl)phenyl)octanediamide] | 1 to 100 |
| Cc1cccc(/C=N/Nc2cc(N3CCOCC3)nc(OCCc3ccc(NC(=O)CCCCCCCCC(=O)Nc4cccc5c4CN(C4CCC(=O)NC4=O)C5=O)cc3)n2)c1 (centres unmarked) [Example 22, (E)-N^1-(2-(2,6-dioxopiperidin-3-yl)-1-oxoisoindolin-4-yl)-N^10-(4-(2-((4-(2-(3-methylbenzylidene)hydrazino)-6-morpholinopyrimidin-2-yl)oxy)ethyl)phenyl)decanediamide] | 100 to 10000 |
| Cc1cccc(/C=N/Nc2cc(N3CCOCC3)nc(OCCc3ccc(NC(=O)CCCCCCCCCCC(=O)Nc4cccc5c4CN(C4CCC(=O)NC4=O)C5=O)cc3)n2)c1 (centres unmarked) [Example 23, (E)-N^1-(2-(2,6-dioxopiperidin-3-yl)-1-oxoisoindolin-4-yl)-N^12-(4-(2-((4-(2-(3-methylbenzylidene)hydrazino)-6-morpholinopyrimidin-2-yl)oxy)ethyl)phenyl)dodecanediamide] | 100 to 10000 |
| Cc1cccc(/C=N/Nc2cc(N3CCOCC3)nc(OCCc3ccc(NC(=O)CCCCC(=O)Nc4ccc5c(c4)CN(C4CCC(=O)NC4=O)C5=O)cc3)n2)c1 (centres unmarked) [Example 25, (E)-N^1-(2-(2,6-dioxopiperidin-3-yl)-1-oxoisoindolin-5-yl)-N^6-(4-(2-((4-(2-(3-methylbenzylidene)hydrazino)-6-morpholinopyrimidin-2-yl)oxy)ethyl)phenyl)adipamide] | 100 to 10000 |
| Cc1cccc(/C=N/Nc2cc(N3CCOCC3)nc(OCCc3ccc(NC(=O)CCCCCCC(=O)Nc4ccc5c(c4)CN(C4CCC(=O)NC4=O)C5=O)cc3)n2)c1 (centres unmarked) [Example 26, (E)-N^1-(2-(2,6-dioxopiperidin-3-yl)-1-oxoisoindolin-5-yl)-N^8-(4-(2-((4-(2-(3-methylbenzylidene)hydrazino)-6-morpholinopyrimidin-2-yl)oxy)ethyl)phenyl)octanediamide] | 100 to 10000 |
| Cc1cccc(/C=N/Nc2cc(N3CCOCC3)nc(OCCc3ccc(NC(=O)CCCCCCCCC(=O)Nc4ccc5c(c4)CN(C4CCC(=O)NC4=O)C5=O)cc3)n2)c1 (centres unmarked) [Example 27, (E)-N^1-(2-(2,6-dioxopiperidin-3-yl)-1-oxoisoindolin-5-yl)-N^10-(4-(2-((4-(2-(3-methylbenzylidene)hydrazino)-6-morpholinopyrimidin-2-yl)oxy)ethyl)phenyl)decanediamide] | 1 to 100 |
| Cc1cccc(/C=N/Nc2cc(N3CCOCC3)nc(OCCc3ccc(NC(=O)CCC(=O)Nc4ccc5c(c4)C(=O)N(C4CCC(=O)NC4=O)C5)cc3)n2)c1 (centres unmarked) [Example 28, (E)-N^1-(2-(2,6-dioxopiperidin-3-yl)-3-oxoisoindolin-5-yl)-N^4-(4-(2-((4-(2-(3-methylbenzylidene)hydrazino)-6-morpholinopyrimidin-2-yl)oxy)ethyl)phenyl)succinimide] | 1 to 100 |
| Cc1cccc(/C=N/Nc2cc(N3CCOCC3)nc(OCCc3ccc(NC(=O)CCCCC(=O)Nc4ccc5c(c4)C(=O)N(C4CCC(=O)NC4=O)C5)cc3)n2)c1 (centres unmarked) [Example 29, (E)-N^1-(2-(2,6-dioxopiperidin-3-yl)-3-oxoisoindolin-5-yl)-N^6-(4-(2-((4-(2-(3-methylbenzylidene)hydrazino)-6-morpholinopyrimidin-2-yl)oxy)ethyl)phenyl)adipamide] | 1 to 100 |
| Cc1cccc(/C=N/Nc2cc(N3CCOCC3)nc(OCCc3ccc(NC(=O)CCCCCCC(=O)Nc4ccc5c(c4)C(=O)N(C4CCC(=O)NC4=O)C5)cc3)n2)c1 (centres unmarked) [Example 30, (E)-N^1-(2-(2,6-dioxopiperidin-3-yl)-3-oxoisoindol-5-yl)-N^8-(4-(2-((4-(2-(3-methylbenzylidene)hydrazino)-6-morpholinopyrimidin-2-yl)oxy)ethyl)phenyl)octanediamide] | 1 to 100 |
| Cc1cccc(/C=N/Nc2cc(N3CCOCC3)nc(OCCc3ccc(NC(=O)CCCCCCCCC(=O)Nc4ccc5c(c4)C(=O)N(C4CCC(=O)NC4=O)C5)cc3)n2)c1 (centres unmarked) [Example 31, (E)-N^1-(2-(2,6-dioxopiperidin-3-yl)-3-oxoisoindol-5-yl)-N^10-(4-(2-((4-(2-(3-methylbenzylidene)hydrazino)-6-morpholinopyrimidin-2-yl)oxy)ethyl)phenyl)decanediamide] | 100 to 10000 |
| Cc1cccc(/C=N/Nc2cc(N3CCOCC3)nc(OCCc3ccc(NC(=O)CCC(=O)Nc4cccc5c4C(=O)N(C4CCC(=O)NC4=O)C5)cc3)n2)c1 (centres unmarked) [Example 32, (E)-N^1-(2-(2,6-dioxopiperidin-3-yl)-3-oxoisoindolin-4-yl)-N^4-(4-(2-((4-(2-(3-methylbenzylidene)hydrazino)-6-morpholinopyrimidin-2-yl)oxy)ethyl)phenyl)succinimide] | 1 to 100 |
| Cc1cccc(/C=N/Nc2cc(N3CCOCC3)nc(OCCc3ccc(NC(=O)CCCCCCCCC(=O)Nc4cccc5c4C(=O)N(C4CCC(=O)NC4=O)C5)cc3)n2)c1 (centres unmarked) [Example 35, (E)-N^1-(2-(2,6-dioxopiperidin-3-yl)-3-oxoisoindolin-4-yl)-N^10-(4-(2-((4-(2-(3-methylbenzylidene)hydrazino)-6-morpholinopyrimidin-2-yl)oxy)ethyl)phenyl)decanediamide] | 100 to 10000 |
| Cc1cccc(/C=N/Nc2cc(N3CCOCC3)nc(OCCc3ccc(NC(=O)CCCCCCCCCCC(=O)Nc4cccc5c4C(=O)N(C4CCC(=O)NC4=O)C5)cc3)n2)c1 (centres unmarked) [Example 36, (E)-N^1-(2-(2,6-dioxopiperidin-3-yl)-3-oxoisoindolin-4-yl)-N^12-(4-(2-((4-(2-(3-methylbenzylidene)hydrazino)-6-morpholinopyrimidin-2-yl)oxy)ethyl)phenyl)dodecanediamide] | 100 to 10000 |
